Data on four molecules can be found in PubChem BioAssay AID1963869 (Molecular Pharmacology Branch, DTP, NCI, 2024).

The test relates to KRAS patient-derived spheroids with HUVEC/MSC, viability. Put plainly: Anticancer human tumor 323965-272-R-J2-PDC patient-derived pancreatic carcinoma cell line growth inhibition [KRAS2]. As to conditions: for viability, T/C: stronger effect = lower value. An excerpt:
Multicellular complex tumor spheroid response to RAS pathway inhibitors in combination with a targeted agents in patient-derived cell lines with oncogenic KRAS variants from multiple cancer types
A high-throughput screen of multi-cell type tumor spheroids was designed to identify active combinations of targeted small molecules and KRAS pathway inhibitors. Complex spheroids include a stromal component modeled by human endothelial cells (HUVEC) and fibroblasts modeled by human mesenchymal stem cells (MSCs). The concentration ranges selected for each drug and investigational agent were based upon clinically achievable concentrations if the clinical Cmax of the agent was known.
Compounds. The drugs and investigational agents: BI-3406 (NSC825286), BAY-293 (NSC824723), batoprotafib (TNO155; NSC825523), sotorasib (AMG 510; NSC818433), MRTX1257 (NSC819558), elimusertib (BAY 1895344; NSC800525), molibresib (GSK525762; NSC774829), temuterkib (LY3214996; NSC803410), venetoclax (NSC766270), alisertib (NSC759677), olaparib (NSC753686), talazoparib (NSC767125), erdafitinib (NSC781556), ipatasertib (NSC767898), cabozantinib (NSC761068), nintedanib (NSC756659), abemaciclib (NSC768073), docetaxel (NSC628503), trametinib (NSC758246), and sapanisertib (NSC764658) were obtained from the National Cancer Institute (NCI) Developmental Therapeutics Program Chemical Repository. The FDA-approved anticancer drug set is available from the Developmental Therapeutics Program. […] The stock solutions were prepared in dimethyl sulfoxide (DMSO, Sigma-Aldrich, St. Louis, MO, cat. D2650) at 800-fold the tested concentration and stored at -70 degrees C prior to their use. All drugs and investigational agents were tested over a range starting from a high concentration at or near the clinical Cmax and decreasing in half-log increments. If the clinical Cmax for an agent had not been determined, the highest concentration tested was 10 microM.
Cell Culture. All cells were maintained in an incubator at 37 degrees C and 5% CO2 with 95% humidity. The PDC lines were cultured according to standard operating procedures established by the NCI PDMR (https://pdmr.cancer.gov/sops/default.htm). Briefly, all PDCs were thawed and cultured in Matrigel-coated flasks prepared with a working solution of 1X Ham's F-12 nutrient mix, without supplementation (Invitrogen, Waltham, MA, cat. 11765054), 100 U/mL penicillin-streptomycin (Invitrogen, cat. 15140122), and 2.5% Matrigel (Corning Inc., Corning, NY, cat. 354248) for the first three passages. All PDCs were cultured in complete DMEM/F-12 media containing advanced DMEM/F-12 (Invitrogen, cat. 12634028), 4.9% defined fetal bovine serum, heat inactivated (HyClone Laboratories Inc., Logan, UT, cat. SH30070.03HI), 389 ng/mL hydrocortisone (Sigma-Aldrich, cat. H4001), 9.7 ng/mL human EGF recombinant protein (Invitrogen, cat. PHG0313), 23.4 microg/mL adenine (Sigma-Aldrich, cat. A2786), 97.3 U/mL penicillin-streptomycin (Invitrogen, cat. 15140122), 1.9 mM L-glutamine (Invitrogen, cat. 25030081), and 9.7 microM Y-27632 dihydrochloride (Tocris Bioscience, Bristol, United Kingdom, cat. 1254). The PDCs were cultured in complete DMEM/F12 media without 9.7 microM Y-27632 dihydrochloride for at least two passages prior to the screen. The established cell line HOP-62 was cultured in RPMI 1640 medium, HEPES (Invitrogen, cat. 22400105) with 10% defined fetal bovine serum (HyClone Laboratories Inc., cat. SH30070.03) and 2 mM L-glutamine (Invitrogen, cat. 25030081). The pooled donor HUVEC were cultured in endothelial cell growth medium 2 (PromoCell, Heidelberg, Germany, cat. C-22011) and the hMSC were cultured in mesenchymal stem cell growth medium 2 (PromoCell, cat. C-28009). For all experiments, HUVEC and hMSC were used at passages </=5, while the malignant cell lines were used at passages </=15. […]

[1] abbreviates: curve of first compound, second compound 0.1 µM.
Setting [2] is: curve of first compound, second compound 0.316 µM.
The mark [3] stands for this setting: curve of first compound, second compound 1 µM.
The mark [4] stands for this setting: curve of first compound, second compound 3.16 µM.
Setting [5] is: second compound 0.1 µM, first compound 0.0316 µM.
Setting [6] is: second compound 0.1 µM, first compound 0.1 µM.
Where [7] appears, read: second compound 0.1 µM, first compound 0.316 µM.
[8] abbreviates: second compound 0.1 µM, first compound 1 µM.
Setting [9] is: second compound 0.1 µM, first compound 3.16 µM.
[10] abbreviates: second compound 0.1 µM, first compound 10 µM.
The mark [11] stands for this setting: second compound 0.316 µM, first compound 0.0316 µM.
[12] abbreviates: second compound 0.316 µM, first compound 0.1 µM.
The mark [13] stands for this setting: second compound 0.316 µM, first compound 0.316 µM.
[14] abbreviates: second compound 0.316 µM, first compound 1 µM.
Where [15] appears, read: second compound 0.316 µM, first compound 3.16 µM.
[16] abbreviates: second compound 0.316 µM, first compound 10 µM.
Setting [17] is: second compound 1 µM, first compound 0.0316 µM.
[18] abbreviates: second compound 1 µM, first compound 0.1 µM.
[19] abbreviates: second compound 1 µM, first compound 0.316 µM.
Where [20] appears, read: second compound 1 µM, first compound 1 µM.
Where [21] appears, read: second compound 1 µM, first compound 3.16 µM.
[22] abbreviates: second compound 1 µM, first compound 10 µM.
Where [23] appears, read: second compound 3.16 µM, first compound 0.0316 µM.
The mark [24] stands for this setting: second compound 3.16 µM, first compound 0.1 µM.
Where [25] appears, read: second compound 3.16 µM, first compound 0.316 µM.
Where [26] appears, read: second compound 3.16 µM, first compound 1 µM.
[27] abbreviates: second compound 3.16 µM, first compound 3.16 µM.
The mark [28] stands for this setting: second compound 3.16 µM, first compound 10 µM.

Some results are limits rather than exact numbers.
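Further: spheroids exposed to agents for 7 days.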
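Wherever viability, T/C is given: 100% = DMSO vehicle control viability.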

Turning to `COc1cc(Nc2ncc3c(n2)-c2ccc(Cl)cc2C(c2c(F)cccc2OC)=NC3)ccc1C(=O)O` + CNCc1ccccc1-c1csc(C(C)Nc2nc(C)nc3cc(OC)c(OC)cc23)c1, the half-inhibitory concentration (IC50) is 128 nM under setting [1]; 92.6 nM under setting [2]; 96.4 nM under setting [3]; above 10000 nM under setting [4]; below 31.6 nM (curve of first compound, second compound 10 µM). In addition, the viability, T/C under setting [5] is 80.2%; the viability, T/C under setting [6] is 52.9%; the viability, T/C under setting [7] was 32%; the viability, T/C under setting [8] is 39.3%; the viability, T/C under setting [9] was 55.5%; the viability, T/C under setting [10] was 63.5%. The viability, T/C reads like this: under setting [11], 78.8%; under setting [12], 50.2%; under setting [13], 33.6%; under setting [14], 35.6%; under setting [15], 52.3%; under setting [16], 55.2%. Moreover, the viability, T/C was 85.6% under setting [17]; 51% under setting [18]; 31.9% under setting [19]; 37.9% under setting [20]; 51.1% under setting [21]; 60% under setting [22]. Besides, the viability, T/C by setting is: under setting [23], 88.2%; under setting [24], 36.9%; under setting [25], 17.9%; under setting [26], 39.5%; under setting [27], 63.3%; under setting [28], 64.6%. Also, the viability, T/C was 0.29% (second compound 10 µM, first compound 0.0316 µM); 0.17% (second compound 10 µM, first compound 0.1 µM); 0.16% (second compound 10 µM, first compound 0.316 µM); 0.2% (second compound 10 µM, first compound 1 µM); 0.35% (second compound 10 µM, first compound 3.16 µM); 0.26% (second compound 10 µM, first compound 10 µM).

Consider `CCNC(=O)CC1N=C(c2ccc(Cl)cc2)c2cc(OC)ccc2-n2c(C)nnc21` (centres undefined), for which the viability, T/C (compound 0.0316 µM) was 97.2% [middle of 5 runs]; the viability, T/C (compound 0.1 µM) is 83.4% [middle of 5 runs]; the viability, T/C (compound 0.316 µM) is 62.2% [middle of 5 runs]; the viability, T/C (compound 1 µM) is 44.5% [middle of 5 runs]; the viability, T/C (compound 3.16 µM) was 39.8% [middle of 5 runs]; the viability, T/C (compound 10 µM) was 36.7% [middle of 5 runs]. Further, the IC50 (curve of compound) was 798 nM [middle of 5 runs].

With `CN(C)C/C=C/C(=O)Nc1cc2c(Nc3ccc(F)c(Cl)c3)ncnc2cc1O[C@H]1CCOC1`, the viability, T/C by setting is: (compound 0.000316 µM) 99% [middle of 5 runs]; (compound 0.001 µM) 97.1% [middle of 5 runs]; (compound 0.00316 µM) 89.2% [middle of 5 runs]; (compound 0.01 µM) 81% [middle of 5 runs]; (compound 0.0316 µM) 74.5% [middle of 5 runs]; (compound 0.1 µM) 73.5% [middle of 5 runs]. The IC50 (curve of compound) is above 100 nM.

On to `O=C(c1cc(Cc2n[nH]c(=O)c3ccccc23)ccc1F)N1CCN(C(=O)C2CC2)CC1` + C=CC(=O)N1CCN(c2nc(OCC3CCCN3C)nc3c2CCN(c2cccc4cccc(C)c24)C3)CC1CC#N, for which the IC50 was 8150 nM (curve of first compound, second compound 0.0316 µM); above 10000 nM under setting [1]; 4290 nM under setting [2]; 6240 nM under setting [3]; below 31.6 nM under setting [4]. Besides, the viability, T/C is 79.1% (second compound 0.0316 µM, first compound 0.0316 µM); 77.5% (second compound 0.0316 µM, first compound 0.1 µM); 76.1% (second compound 0.0316 µM, first compound 0.316 µM); 71.6% (second compound 0.0316 µM, first compound 1 µM); 74.3% (second compound 0.0316 µM, first compound 3.16 µM); 44.9% (second compound 0.0316 µM, first compound 10 µM). The viability, T/C is 61.4% under setting [5]; 64.6% under setting [6]; 61.8% under setting [7]; 60.4% under setting [8]; 57.5% under setting [9]; 48.5% under setting [10]. Moreover, the viability, T/C is 57.8% under setting [11]; 60.1% under setting [12]; 55.4% under setting [13]; 58% under setting [14]; 51.8% under setting [15]; 43.1% under setting [16]. The viability, T/C was 61.6% under setting [17]; 63.5% under setting [18]; 63.3% under setting [19]; 59.7% under setting [20]; 50.8% under setting [21]; 48.3% under setting [22]. The viability, T/C under setting [23] was 33.7%; the viability, T/C under setting [24] was 27.4%; the viability, T/C under setting [25] is 25.1%; the viability, T/C under setting [26] was 31.8%; the viability, T/C under setting [27] was 34.7%; the viability, T/C under setting [28] is 25.1%.
